Key:
[1] = target: CDK12/CyclinK (Homo sapiens (Human), UniProt Q9NYV4); assay: CDK12/CycK high ATP kinase assay (TR-FRET); type: biochemical; settings: for IC50: 2 mM ATP (high ATP), median, read-out: CDK12/CyclinK, 2 mM ATP (high ATP), IC50 - [mol/l] (median); for (IC50 CDK12 high ATP) to (Degradation DC50 CDK12) ratio: IC50 CDK12 at 2 mM ATP divided by CDK12 degradation DC50 (IF, CAL-120)
Protocol: In the context of the present invention, the term “IC50 CDK12 hATP” refers to the IC50 values obtained according to the assay described in this section (2.2) herein below, i.e. the IC50 values for the inhibition of CDK12 at high (2 mM) ATP.
CDK12/CycK-inhibitory activity of compounds of the present invention at 2 millimol/L adenosine-tri-phosphate (ATP) was quantified employing the TR-FRET (TR-FRET=Time Resolved Fluorescence Energy Transfer) based CDK12/CycK activity inhibition assay as described in the following paragraphs.
A complex of human recombinant CDK12 and human recombinant CycK (both N-terminally His-tagged, expression and purification as described above) was used as enzyme. As substrate for the kinase reaction biotinylated peptide biotin-Ahx-KFELLPTPPLSPSRRSGL (C-terminus in amid form) was used which can be purchased e.g. form the company Biosyntan (Berlin-Buch, Germany).
For the assay 50 nanoL of a 100 fold concentrated solution of the test compound in DMSO was pipetted into either a black low volume 384 well microtiter plate or a black 1536 well microtiter plate (both Greiner Bio-One, Frickenhausen, Germany), 2 microL of a solution of CDK12/CycK in aqueous assay buffer [25 millimol/L HEPES pH 7.5, 20 millimol/L MgCl2, 5 millimol/L β-glycerophosphate, 2 millimol/L EGTA, 1.0 millimol/L dithiothreitol, 0.01% (v/v) Nonidet-P40 (Sigma), 0.01% (w/v) bovine serum albumin] were added and the mixture was incubated for 15 min at 22° C. to allow pre-binding of the test compounds to the enzyme before the start of the kinase reaction. Then the kinase reaction was started by the addition of 3 microL of a solution ATP (3.33 millimol/L=>final conc. in the 5 microL assay volume is 2 millimol/L) and substrate (1.67 micromol/L=>final conc. in the 5 microL assay volume is 1 micromol/L) in assay buffer and the resulting mixture was incubated for a reaction time of 60 min at 22° C. The concentration of CDK12/CycK was adjusted depending of the activity of the enzyme lot and was chosen appropriate to have the assay in the linear range, typical concentrations were about 0.75 nanomol/L. The reaction was stopped by the addition of 3 microL of a solution of TR-FRET detection reagents (125 nanomol/L streptavidine-XL665 [Cisbio Bioassays, Codolet, France] and 0.67 nanomol/L anti-Phospho-c-Myc (Ser 62) (E1J4K)-antibody from Cell Signalling [#13748] and 2 nanomol/L LANCE EU-W1024 labeled anti-rabbit IgG antibody [Perkin-Elmer, product no. 0083]) in an aqueous EDTA-solution (133 millimol/L EDTA, 0.27% (w/v) bovine serum albumin in 66.7 millimol/L HEPES pH 7.5).
The resulting mixture was incubated 1 h at 22° C. to allow the formation of complex between the phosphorylated biotinylated peptide and the detection reagents. Subsequently the amount of phosphorylated substrate was evaluated by measurement of the resonance energy transfer from the Eu-chelate to the streptavidine-XL. Therefore, the fluorescence emissions at 620 nm and 665 nm after excitation at 350 nm was measured in a TR-FRET reader, e.g. a Pherastar FS (BMG Labtechnologies, Offenburg, Germany) or a Viewlux (Perkin-Elmer). The ratio of the emissions at 665 nm and at […] was taken as the measure for the amount of phosphorylated substrate. The data were normalised (enzyme reaction without inhibitor=0% inhibition, all other assay components but no enzyme=100% inhibition).

[2] = tested on: BRCA1 mRNA expression in MDA-MB-231 cells; assay: qRT-PCR assay: inhibition of BRCA1 mRNA expression in MDA-MB-231 cells; type: cell-based; settings: Homo sapiens, 24 h exposure, BRCA1 normalised to GAPDH, median, read-out: RTqPCR-MDA-MB-231, IC50 [mol/l], BRCA1 (median)
Protocol: 3. qRT-PCR Assay: BRCA1, ATR, MCL1 in MDA-MB-231, CAL-120
Tissue cultured human MDA-MB-231 human breast cancer cells were plated in 500 microL per well at 200,000 cells/well in a 24 well microtiter plate. After 24 h, the cells were exposed continuously for 24 h to test substances (substances were added with Tecan HP D300 Dispenser). RNA was prepared using Qiagen RNeasy MiniKit (#74106), RNA was quantified using a NanoDrop Equipment, and 600 nano grams of RNA was converted to cDNA using a SuperScript VILO kit (Thermofisher #11755050) followed by qPCR amplification. BRCA1 and ATR gene expression was measured by RT-qPCR and normalised to GAPDH housekeeping gene expression. qPCR primer sets have been purchased from Thermo Fisher Scientific/Applied Biosystems: BRCA1, #Hs 01556193; ATR. #Hs 00992123: GAPDH. #Hs 03929097.

Sequence of CDK12/CyclinK (Q9NYV4 other isoform, or with tags, fused parts or gaps): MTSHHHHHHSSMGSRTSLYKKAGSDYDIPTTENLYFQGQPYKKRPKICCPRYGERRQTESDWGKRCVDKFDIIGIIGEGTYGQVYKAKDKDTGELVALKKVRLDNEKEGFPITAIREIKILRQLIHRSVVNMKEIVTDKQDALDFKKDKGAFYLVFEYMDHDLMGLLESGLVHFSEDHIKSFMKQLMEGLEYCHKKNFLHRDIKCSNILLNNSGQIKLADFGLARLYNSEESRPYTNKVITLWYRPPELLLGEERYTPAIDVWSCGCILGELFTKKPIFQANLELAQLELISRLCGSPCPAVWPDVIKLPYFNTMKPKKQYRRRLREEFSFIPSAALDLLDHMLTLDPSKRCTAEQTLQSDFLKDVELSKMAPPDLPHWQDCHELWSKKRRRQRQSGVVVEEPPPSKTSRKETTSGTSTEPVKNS
Sequence of CDK12/CyclinK (O75909 other isoform, or with tags, fused parts or gaps partner): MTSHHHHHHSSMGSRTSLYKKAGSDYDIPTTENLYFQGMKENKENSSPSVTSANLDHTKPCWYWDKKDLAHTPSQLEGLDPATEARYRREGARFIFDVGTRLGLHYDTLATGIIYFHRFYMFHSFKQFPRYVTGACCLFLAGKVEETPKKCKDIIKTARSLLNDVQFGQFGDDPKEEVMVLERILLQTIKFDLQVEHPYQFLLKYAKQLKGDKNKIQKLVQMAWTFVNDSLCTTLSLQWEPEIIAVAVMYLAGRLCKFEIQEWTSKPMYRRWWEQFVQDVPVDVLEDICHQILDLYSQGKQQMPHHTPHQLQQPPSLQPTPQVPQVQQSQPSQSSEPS

IC50 [1] [nM]	(IC50 CDK12 high ATP) to (Degradation DC50 CDK12) ratio [1]	Structure (SMILES)	IC50 [2] [nM]
4.14	–	FC(F)(F)Oc1ccc(-c2nnc(CNc3nc(N4CCOCC4)nn4c(C(F)(F)F)cnc34)[nH]2)cn1 [Example 19, 2-(morpholin-4-yl)-N-({5-[6-(trifluoromethoxy)pyridin-3-yl]-4H-1,2,4-triazol-3-yl}methyl)-7-(trifluoromethyl)imidazo[2,1-f][1,2,4]triazin-4-amine]	34.5
160	<0.16	Cc1ccc(-c2nnc(CNc3nc(N4CCOCC4)nn4c(C(F)(F)F)cnc34)[nH]2)cn1 [Example 23, N-{[5-(6-methylpyridin-3-yl)-4H-1,2,4-triazol-3-yl]methyl}-2-(morpholin-4-yl)-7-(trifluoromethyl)imidazo[2,1-f][1,2,4]triazin-4-amine]	102
1830	0.77	FC(F)(F)c1ccc(-c2nnc(CNc3nc(N4CCOCC4)nc4c(Br)cnn34)[nH]2)cc1 [Example 1, 8-bromo-2-(morpholin-4-yl)-N-({5-[4-(trifluoromethyl)phenyl]-4H-1,2,4-triazol-3-yl}methyl)pyrazolo[1,5-a][1,3,5]triazin-4-amine]	514

— patent US20250066370A1, “BICYCLIC TRIAZINE DERIVATIVES FOR THE TREATMENT OF CANCER” (DEUTSCHES KREBSFORSCHUNGSZENTRUM, priority 2022, published 2025)
